# Laboratory results: US20050014849A1, “Antifungal phenylethylene” (priority 2001, published 2005)
# Legend:
# [1] = tested on: C. albicans (ATCC 90028); test: Video-enhanced DIC microscopy of yeast/hyphal morphology; type: cell-based, Candida albicans
# Source text: The mechanism of action of TMPN was investigated microscopically, Candida albicans (ATCC 90028) cultures were exposed to one quarter or one half times the broth macrodilution MIC of TMPN in DMSO, or an equivalent concentration of DMSO for controls, until late-log phase. Cells were examined using an Axioscope microscope (Carl Zeiss, Thornwood, N.Y.) equipped with standard differential interference contrast (DIC) using a Plan-Neofluar 100×/1.3 (oil immersion) objective. The microscope was coupled to a C24007-07 (imaging tube camera type) video camera, via a 4×extension tube (Carl Zeiss), and an analog control unit (Hammamatsu Photonic Systems Corp., Bridgewater, N.J.). Real-time digital contrast enhancement was done with an Argus 10 Image Processor (Hammamatsu). Single frame images were digitized directly or from videotaped sequences using a Sony UP-5600MD video/digital printer (Sony Electronics, Inc., Montvale, N.J.) and prepared for printing in Photoshop 5.0 (Adobe Systems, Mountain View, Calif.). Final images were printed with a NP-1600M Medical Color Printer (Codonics, Inc., Middleburg Heights, Ohio).
# [2] = tested on: T. ovoides ATCC 90040; test: Broth macrodilution MIC/MFC; type: cell-based, Trichosporon ovoides
# Procedure: TMPN was screened against yeasts by the broth macrodilution assay according to the NCCLS [7]. Yeasts were suspended and diluted as recommended to yield final inocula ranging from 0.5-2.5×10^3 cfu/ml. Tests were performed in sterile 12 by 75 mm plastic tubes containing two-fold dilutions of TMPN in 0.165 M morpholinepropanesulfonic acid buffered RPMI 1640 medium (pH 7.0). One tube was again left drug free (but contained an equivalent volume of DMSO) for a turbidity control. Tubes were incubated without agitation at the appropriate temperature (see Fungal Strains section above). MICs were determined after 72 h for Cryptococcus and after 48 h for other yeast genera. The MIC was defined as the lowest concentration of TMPN that inhibited all visible growth of the test organism (optically clear).
# Minimum fungicidal concentrations (MFCs) were determined by subculturing 0.1 ml from each tube with no visible growth in the MIC broth macrodilution series onto the appropriate drug-free plates (see Fungal Strains section above).
structure (smiles),measurement,setting,value
"COc1cc(C=C[N+](=O)[O-])cc(OC)c1OC [TMPN, 1-(3′,4′,5′-trimethoxyphenyl)-2-nitro-ethylene]",cells with hyphal extensions,[1]; one half times the TMPN MIC,not observed
same,growth morphology observed (FIG. 4 panel b),[1]; one half times the TMPN MIC,only yeast growth
same,growth rate,[1]; one half times the TMPN MIC,same rate as controls
same,hyphae seen,[1]; one quarter times the TMPN MIC,rarely seen
same,length of hyphae,[1]; one quarter times the TMPN MIC,< 20 μm
same,yeast/hyphae switching,[1]; sub-MIC exposure,did not exhibit yeast/hyphae switching
same,MFC Range,[2],32 µg/mL
same,MIC Range,[2],16 µg/mL
